Data: patent US8822530B2, “Sulfur derivatives as chemokine receptor modulators” (Allergan, Inc., priority 2010, dated 2014)

Each compound was assayed against T1, CCR2 receptor (Homo sapiens, UniProt P41597) (assay: Calcium activity assay on FLIPR Tetra in HEK-Gqi5 cells stably expressing CCR2).
T1 construct: expressed in transfected cells
Format: cell-based
Procedure: HEK-Gqi5 cells stably expressing CCR2 were cultured in DMEM high glucose, 10% FBS, 1% PSA, 400 μg/ml geneticin and 50 μg/ml hygromycin. Appropriate positive control chemokines (MCP-1, MIP1A or RANTES) was used as the positive control agonist for screening compound-induced calcium activity assayed on the FLIPR^Tetra. The drug plates were prepared in 384-well microplates using the EP3 and the MultiPROBE robotic liquid handling systems. Compounds were synthesized and tested for CCR2 activity.

T1 sequence (P41597 whole entry): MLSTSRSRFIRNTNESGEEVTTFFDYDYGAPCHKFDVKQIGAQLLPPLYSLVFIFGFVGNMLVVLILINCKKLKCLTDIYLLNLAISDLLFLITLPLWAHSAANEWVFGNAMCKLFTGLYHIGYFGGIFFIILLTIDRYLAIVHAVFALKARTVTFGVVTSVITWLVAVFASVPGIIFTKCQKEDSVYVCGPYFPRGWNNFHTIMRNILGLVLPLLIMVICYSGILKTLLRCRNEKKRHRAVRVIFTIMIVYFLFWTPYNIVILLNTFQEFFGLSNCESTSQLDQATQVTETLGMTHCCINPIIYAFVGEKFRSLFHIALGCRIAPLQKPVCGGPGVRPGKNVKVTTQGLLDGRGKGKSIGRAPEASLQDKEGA

SMILES | CCR2 % ANTAGONISM [%] | IC50 [nM]
CC(=O)Nc1cccc(CSc2ccc(Cl)cc2NS(=O)(=O)c2cc3ccccc3o2)c1 [N-{3-[({2-[(1-benzofuran-2-ylsulfonyl)amino]-4-chlorophenyl}sulfanyl)methyl]phenyl}acetamide] | 96 | 379
O=C(NCC[N+]1([O-])CCCC1)c1ccc(CSc2ccc(Cl)cc2NS(=O)(=O)c2ccc(Cl)c(C(F)(F)F)c2)cc1 [4-({[4-chloro-2-({[4-chloro-3-(trifluoromethyl)phenyl]sulfonyl}amino)phenyl]sulfanyl}methyl)-N-[2-(1-oxidopyrrolidin-1-yl)ethyl]benzamide] | 31 | –
O=C(NCCN1CCCC1)c1ccc(C[S+]([O-])c2ccc(Cl)cc2NS(=O)(=O)c2ccc(Cl)c(C(F)(F)F)c2)cc1 (stereo not shown) [4-({[4-chloro-2-({[4-chloro-3-(trifluoromethyl)phenyl]sulfonyl}amino)phenyl]sulfinyl}methyl)-N-[2-(pyrrolidin-1-yl)ethyl]benzamide] | 85 | 1430
CN(C)C(=O)c1ccccc1CSc1ccc(Cl)cc1NS(=O)(=O)c1ccc(Cl)c(C(F)(F)F)c1 [2-({[4-chloro-2-({[4-chloro-3-(trifluoromethyl)phenyl]sulfonyl}amino)phenyl]sulfanyl}methyl)-N,N-dimethylbenzamide] | 71 | 171
COC(=O)c1cccc(CSc2ccc(Cl)cc2NS(=O)(=O)c2ccc(Cl)c(C(F)(F)F)c2)c1 [methyl 3-({[4-chloro-2-({[4-chloro-3-(trifluoromethyl)phenyl]sulfonyl}amino)phenyl]sulfanyl}methyl)benzoate] | 57 | 1360
COC(=O)c1cccc(C[S+]([O-])c2ccc(Cl)cc2NS(=O)(=O)c2ccc(Cl)c(C(F)(F)F)c2)c1 (stereo not shown) [methyl 3-({[4-chloro-2-({[4-chloro-3-(trifluoromethyl)phenyl]sulfonyl}amino)phenyl]sulfinyl}methyl)benzoate] | 93 | 3110
COC(=O)CCS(=O)(=O)c1ccc(Cl)cc1NS(=O)(=O)c1cc2ccccc2o1 [methyl 3-({2-[(1-benzofuran-2-ylsulfonyl)amino]-4-chlorophenyl}sulfonyl)propanoate] | 96 | 225
O=C(NCCN1CCCC1)c1cccc(CS(=O)(=O)c2ccc(Cl)cc2NS(=O)(=O)c2ccc(Cl)c(C(F)(F)F)c2)c1 | 110 | 817
CC(C)(C)OC(=O)CNC(=O)c1ccc(C[S+]([O-])c2ccc(Cl)cc2NS(=O)(=O)c2ccc(Cl)c(C(F)(F)F)c2)cc1 (stereo not shown) [tert-butyl ({[4-({[4-chloro-2-({[4-chloro-3-(trifluoromethyl)phenyl]sulfonyl}amino)phenyl]sulfinyl}methyl)phenyl]carbonyl}amino)acetate] | 93 | –

Continued, values first:

CCR2 % ANTAGONISM [%] | IC50 [nM] | SMILES
96 | – | O=C(O)c1ccccc1CS(=O)(=O)c1ccc(Cl)cc1NS(=O)(=O)c1cc2ccccc2o1 [2-[({2-[(1-benzofuran-2-ylsulfonyl)amino]-4-chlorophenyl}sulfonyl)methyl]benzoic acid]
99 | 46 | O=C(O)CCSc1ccc(Cl)cc1NS(=O)(=O)c1cc2ccccc2o1 [3-({2-[(1-benzofuran-2-ylsulfonyl)amino]-4-chlorophenyl}sulfanyl)propanoic acid]
101 | 274 | COC(=O)c1ccccc1C[S+]([O-])c1ccc(Cl)cc1NS(=O)(=O)c1ccc(Cl)c(C(F)(F)F)c1 (stereo not shown) [methyl 2-({[4-chloro-2-({[4-chloro-3-(trifluoromethyl)phenyl]sulfonyl}amino)phenyl]sulfinyl}methyl)benzoate]
77 | 2660 | CC(C)(C)OC(=O)CNC(=O)c1ccc(CS(=O)(=O)c2ccc(Cl)cc2NS(=O)(=O)c2ccc(Cl)c(C(F)(F)F)c2)cc1 [tert-butyl ({[4-({[4-chloro-2-({[4-chloro-3-(trifluoromethyl)phenyl]sulfonyl}amino)phenyl]sulfonyl}methyl)phenyl]carbonyl}amino)acetate]
99 | 217 | COC(=O)CC[S+]([O-])c1ccc(Cl)cc1NS(=O)(=O)c1cc2ccccc2o1 (stereo not shown) [methyl 3-({2-[(1-benzofuran-2-ylsulfonyl)amino]-4-chlorophenyl}sulfinyl)propanoate]
